Species: Rattus norvegicus
Assay: Open TG-GATES - Regimen: Single
Format: toxicity, organism-based, Sprague-Dawley
Parameters: regimen Single, gender Male, age 6 weeks
Conditions: in vivo, po, 60 mg/kg, route gavage, dose level High; for APTT / Bas / Eos / Fbg / Hb / Ht / Lym / MCH / MCHC / MCV / Mono / Neu / PT / Plat / RBC / WBC: tissue Blood; for KIDNEY_L / KIDNEY_R / KIDNEY_TOTAL: tissue Kidney; for LIVER: tissue Liver; for ALT / AST / BUN / CRE / Cl / DBIL / GLC / IP / LDH / Na / RALB / TBIL / TC / TG / TP / gamma-GTP: tissue Plasma

Which TERMINAL_BW (3 h) does the source give for `CC/C(=C(\c1ccccc1)c1ccc(OCCN(C)C)cc1)c1ccccc1` [TAMOXIFEN] here?
The TERMINAL_BW was 193.1 g.

And the APTT (3 h)?
Its APTT is 16.1 s.

What about the Bas (3 h) of the same compound?
The Bas was 0%.

What about the Eos (3 h) of the same compound?
Its Eos is 1%.

And the Fbg (3 h)?
Its Fbg is 259.8 mg/dL.

And the Hb (3 h)?
The Hb was 13.1 g/dL.

What about the Ht (3 h) of the same compound?
Its Ht is 39.5%.

What about the Lym (3 h) of the same compound?
The Lym was 77.6%.

And the MCH (3 h)?
Its MCH is 21.8 pg.

What about the MCHC (3 h) of the same compound?
The MCHC was 33.3%.

And the MCV (3 h)?
The MCV was 65.7 fL.

And the Mono (3 h)?
The Mono was 3.8%.

What about the Neu (3 h) of the same compound?
The Neu was 17.4%.

And the PT (3 h)?
Its PT is 11.9 s.

What about the Plat (3 h) of the same compound?
The Plat was 112.1 x10_4/uL.

What about the RBC (3 h) of the same compound?
The RBC was 601.4 x10_4/ul.

And the WBC (3 h)?
Its WBC is 80.5 x10_2/uL.

And the KIDNEY_L (3 h)?
The KIDNEY_L was 0.9 g.

And the KIDNEY_R (3 h)?
Its KIDNEY_R is 0.9 g.

And the KIDNEY_TOTAL (3 h)?
The KIDNEY_TOTAL was 1.7 g.

What about the LIVER (3 h) of the same compound?
Its LIVER is 8.3 g.

And the ALT (3 h)?
The ALT was 50.8 IU/L.

And the AST (3 h)?
The AST was 82.6 IU/L.

What about the BUN (3 h) of the same compound?
Its BUN is 9.4 mg/dL.

What about the CRE (3 h) of the same compound?
The CRE was 0.2 mg/dL.

What about the Cl (3 h) of the same compound?
Its Cl is 106.8 meq/L.

What about the DBIL (3 h) of the same compound?
The DBIL was 0.026 mg/dL.

And the GLC (3 h)?
Its GLC is 169.2 mg/dL.

And the IP (3 h)?
The IP was 9.5 mg/dL.

And the LDH (3 h)?
Its LDH is 77 IU/L.

What about the Na (3 h) of the same compound?
Its Na is 140.8 meq/L.

And the RALB (3 h)?
The RALB was 2.6 g/dL.

What about the TBIL (3 h) of the same compound?
Its TBIL is 0.05 mg/dL.

What about the TC (3 h) of the same compound?
The TC was 80 mg/dL.

And the TG (3 h)?
Its TG is 106.2 mg/dL.

And the TP (3 h)?
The TP was 5.6 g/dL.

And the gamma-GTP (3 h)?
The gamma-GTP was 1 IU/L.

What about the TERMINAL_BW (6 h) of the same compound?
Its TERMINAL_BW is 193.6 g.

And the Bas (6 h)?
The Bas was 0%.

And the Eos (6 h)?
Its Eos is 0.8%.

And the Fbg (6 h)?
Its Fbg is 252.6 mg/dL.

And the Hb (6 h)?
Its Hb is 12.8 g/dL.

And the Lym (6 h)?
The Lym was 78.8%.

What about the MCH (6 h) of the same compound?
Its MCH is 21.5 pg.

What about the MCHC (6 h) of the same compound?
Its MCHC is 33.4%.

What about the MCV (6 h) of the same compound?
The MCV was 64.3 fL.

What about the Mono (6 h) of the same compound?
The Mono was 2.6%.

And the Neu (6 h)?
The Neu was 17.6%.

What about the PT (6 h) of the same compound?
The PT was 12.2 s.

And the Plat (6 h)?
Its Plat is 112.7 x10_4/uL.

What about the RBC (6 h) of the same compound?
Its RBC is 595.6 x10_4/ul.

What about the WBC (6 h) of the same compound?
The WBC was 59.9 x10_2/uL.

And the KIDNEY_L (6 h)?
Its KIDNEY_L is 0.8 g.

And the KIDNEY_R (6 h)?
Its KIDNEY_R is 0.9 g.

And the KIDNEY_TOTAL (6 h)?
The KIDNEY_TOTAL was 1.7 g.

What about the LIVER (6 h) of the same compound?
The LIVER was 7.5 g.

And the ALT (6 h)?
The ALT was 38.8 IU/L.

And the AST (6 h)?
The AST was 74.2 IU/L.

And the BUN (6 h)?
The BUN was 7.6 mg/dL.

And the CRE (6 h)?
Its CRE is 0.2 mg/dL.

What about the Cl (6 h) of the same compound?
The Cl was 109.4 meq/L.

And the DBIL (6 h)?
Its DBIL is 0.012 mg/dL.

What about the GLC (6 h) of the same compound?
Its GLC is 175 mg/dL.

What about the IP (6 h) of the same compound?
Its IP is 10.4 mg/dL.

What about the LDH (6 h) of the same compound?
Its LDH is 54.4 IU/L.

What about the Na (6 h) of the same compound?
Its Na is 141.8 meq/L.

And the RALB (6 h)?
Its RALB is 2.5 g/dL.

And the TBIL (6 h)?
The TBIL was 0.042 mg/dL.

What about the TC (6 h) of the same compound?
Its TC is 76.4 mg/dL.

And the TG (6 h)?
The TG was 56.2 mg/dL.

What about the TP (6 h) of the same compound?
Its TP is 5.2 g/dL.

What about the gamma-GTP (6 h) of the same compound?
Its gamma-GTP is 1.2 IU/L.

What about the TERMINAL_BW (9 h) of the same compound?
The TERMINAL_BW was 193.9 g.

What about the APTT (9 h) of the same compound?
The APTT was 14.5 s.

And the Bas (9 h)?
Its Bas is 0%.

And the Eos (9 h)?
The Eos was 0.8%.

And the Fbg (9 h)?
The Fbg was 274.6 mg/dL.

And the Hb (9 h)?
The Hb was 13 g/dL.

What about the Ht (9 h) of the same compound?
The Ht was 38.6%.

What about the Lym (9 h) of the same compound?
The Lym was 79%.

And the MCH (9 h)?
The MCH was 22.2 pg.

And the MCHC (9 h)?
The MCHC was 33.7%.

And the MCV (9 h)?
The MCV was 65.8 fL.

And the Mono (9 h)?
The Mono was 2.4%.

And the Neu (9 h)?
Its Neu is 17.4%.

What about the PT (9 h) of the same compound?
Its PT is 12.1 s.

And the Plat (9 h)?
Its Plat is 121.3 x10_4/uL.

What about the RBC (9 h) of the same compound?
Its RBC is 586.6 x10_4/ul.

And the WBC (9 h)?
The WBC was 71.5 x10_2/uL.

What about the KIDNEY_L (9 h) of the same compound?
The KIDNEY_L was 0.8 g.

What about the KIDNEY_R (9 h) of the same compound?
Its KIDNEY_R is 0.8 g.

And the KIDNEY_TOTAL (9 h)?
The KIDNEY_TOTAL was 1.7 g.

What about the LIVER (9 h) of the same compound?
Its LIVER is 7.3 g.

What about the ALT (9 h) of the same compound?
The ALT was 43.8 IU/L.

And the AST (9 h)?
The AST was 75.2 IU/L.

And the BUN (9 h)?
The BUN was 8.4 mg/dL.

What about the CRE (9 h) of the same compound?
Its CRE is 0.2 mg/dL.

And the Cl (9 h)?
Its Cl is 107 meq/L.

And the DBIL (9 h)?
Its DBIL is 0.01 mg/dL.

And the GLC (9 h)?
Its GLC is 184.6 mg/dL.

What about the IP (9 h) of the same compound?
The IP was 11.2 mg/dL.

And the LDH (9 h)?
Its LDH is 59.8 IU/L.

What about the Na (9 h) of the same compound?
Its Na is 141.6 meq/L.

What about the RALB (9 h) of the same compound?
Its RALB is 2.5 g/dL.

What about the TBIL (9 h) of the same compound?
The TBIL was 0.044 mg/dL.

What about the TC (9 h) of the same compound?
The TC was 79.4 mg/dL.

What about the TG (9 h) of the same compound?
The TG was 39 mg/dL.

And the TP (9 h)?
The TP was 5.3 g/dL.

And the gamma-GTP (9 h)?
The gamma-GTP was 1.4 IU/L.

And the TERMINAL_BW (24 h)?
Its TERMINAL_BW is 193.1 g.

And the APTT (24 h)?
The APTT was 15.8 s.

And the Bas (24 h)?
Its Bas is 0.2%.

And the Eos (24 h)?
The Eos was 1.2%.

And the Fbg (24 h)?
The Fbg was 260.2 mg/dL.

What about the Hb (24 h) of the same compound?
Its Hb is 13.2 g/dL.

What about the Ht (24 h) of the same compound?
The Ht was 39.4%.

And the Lym (24 h)?
The Lym was 80.8%.

And the MCH (24 h)?
The MCH was 21.5 pg.

And the MCHC (24 h)?
The MCHC was 33.4%.

What about the MCV (24 h) of the same compound?
The MCV was 64.5 fL.

What about the Mono (24 h) of the same compound?
The Mono was 3.2%.

What about the Neu (24 h) of the same compound?
The Neu was 14.2%.

And the PT (24 h)?
Its PT is 12.9 s.

And the Plat (24 h)?
Its Plat is 113.6 x10_4/uL.

What about the RBC (24 h) of the same compound?
The RBC was 611.2 x10_4/ul.

What about the WBC (24 h) of the same compound?
The WBC was 91.3 x10_2/uL.

What about the KIDNEY_L (24 h) of the same compound?
The KIDNEY_L was 0.9 g.

And the KIDNEY_R (24 h)?
The KIDNEY_R was 0.9 g.

And the KIDNEY_TOTAL (24 h)?
The KIDNEY_TOTAL was 1.7 g.

What about the LIVER (24 h) of the same compound?
Its LIVER is 8.4 g.

And the ALT (24 h)?
The ALT was 45 IU/L.

And the AST (24 h)?
The AST was 71.6 IU/L.

What about the BUN (24 h) of the same compound?
Its BUN is 12.8 mg/dL.

What about the CRE (24 h) of the same compound?
The CRE was 0.2 mg/dL.

And the Cl (24 h)?
Its Cl is 109.4 meq/L.

And the DBIL (24 h)?
The DBIL was 0.018 mg/dL.

What about the GLC (24 h) of the same compound?
The GLC was 185.8 mg/dL.

What about the IP (24 h) of the same compound?
Its IP is 8.3 mg/dL.

What about the LDH (24 h) of the same compound?
The LDH was 54 IU/L.

And the Na (24 h)?
The Na was 143.2 meq/L.

What about the RALB (24 h) of the same compound?
The RALB was 2.6 g/dL.

And the TBIL (24 h)?
Its TBIL is 0.044 mg/dL.

What about the TC (24 h) of the same compound?
Its TC is 51.4 mg/dL.

What about the TG (24 h) of the same compound?
The TG was 81 mg/dL.

What about the TP (24 h) of the same compound?
Its TP is 5.4 g/dL.

And the gamma-GTP (24 h)?
Its gamma-GTP is 1 IU/L.

Reference: ChEMBL document CHEMBL3885861, “Open TG-GATES”
